The target in data set [1] is T1, DR0401 protein (Homo sapiens, UniProt P01903+P01911, A100K/A169T/F76Y/I96L/K127E/L162R/M171V/N62H/P40V/Q125Y/R42H/S133A/S149N/S66Y/V115G/V209L/W38E).
T1 construct: made in house; host or cells: insect cell cultures
Kind of data set: DR0401 peptide binding competition assay. The following applies: competition with biotin-HA306-318 0.02 μM.

In data set [2] the test system is recombinant human pancreatic glucokinase. In words: Catalytic activity of recombinant human pancreatic glucokinase (G6PDH coupled assay). Details: catalytic activity: unit not given beside the values. The class given is biochemical. The following applies: for catalytic activity: source data sheet Fig 5c; for Vmax / Km: steady-state kinetics at 37 °C, Michaelis-Menten fit; for Vmax: glucose 0–50 mM; for Km: substrate glucose 0–50 mM. As for the experimental part:
For in vitro citrullination, 0.1U of rabbit peptidylarginine deiminase (PADI2; Sigma–Aldrich) were added to 50 µg of recombinant human pancreatic glucokinase (rhGK; LS-G3456, LSBio) in reaction buffer (0.1 M Tris-HCl, 10 mM CaCl2 and 5 mM DTT) at 37 °C for 2.5 hrs and kept at -80 °C in multiple aliquots to avoid freeze and thaw until used. Minimum 6 µg of rhGK and PAD-treated-rhGK were reduced, alkylated and tryptic digested for LS-MS/MS analysis. Data were collected on a QE-Plus mass spectrometer coupled to a NanoACQUITY UPLC (Waters Inc.). A Waters Symmetry® C18 180 μm × 20 mm trap column and a 1.7-μm, 75 μm × 250 mm nanoACQUITY UPLC column (35 °C) was utilized for the separation. Collected LC–MS/MS data were processed using Proteome Discoverer Software (v. 2.2, Thermo Fisher Scientific) and searched were carried out in MASCOT Search Engine (Matrix Science) using the below parameters; oxidation (M), deamidated (N/Q) and citrullination (R) as the variable modifications and carbamidomethylation (C) as a fixed modification. Mascot results were loaded into Scaffold Q + S 4.11.0 and then Scaffold PTM 3.3.0 was used to re-analyze MS/MS spectra identified as citrulline modified peptides. Calculated Ascore values for citrullinated peptides containing the neutral loss of isocyanic acid (−43 Da)[54] indicate the level of site localization probabilities to assess the level of confidence in each citrullination PTM localization. Scaffold PTM then combines localization probabilities for all peptides containing each identified PTM site to obtain the best estimated probability that a PTM is present at that particular site. Manual MS/MS inspection of the modified peptides were also carried out to ensure correct assignments/localizations of the citrullination sites (detailed MS/MS spectra are presented in Source Data-File 2 spreadsheet).
After in vitro citrullination by PAD as described above, recombinant human pancreatic glucokinase (rhGK; LS-G5486, LSBio) was put on the ice to stop the reaction for 5 min. Then glucokinase activity was measured spectrophotometrically (A340nm) at 37 °C by a glucose 6-phosphate dehydrogenase (G6PDH) coupled assay as described previously. In brief, 1 µg rhGK or PAD-treated rhGK was assayed in a reaction buffer containing 25 mM Hepes (pH7.3), 2 mM MgCl2, 1 mM DTT, 0.5 mM NADP, 2 mM ATP, 0.01%BSA, 20U/ml G6PDH and 25 mM D-( + )-glucose. Relative specific activity of glucokinase was calculated from linear regression of the change in A340nm. To determine the steady-state kinetic properties of both rhGK and PAD-treated rhGK, varying concentrations of D-( + )-glucose (0–50 mM) were used. Vmax and Km were calculated by Michaelis-Menten equation using GraphPad Prism Software.

Where [3] appears, read: Supplementary Table 3, representative values from two replicate experiments, read-out: IC50 (Effect of Citrulline or Arg Substitution).
Where [4] appears, read: Supplementary Table 2, read-out: IC50 (Binding of Predicted Glucokinase Peptides to DR04:01).
Where [5] appears, read: 25 mM glucose, 1 µg protein, replicate 1.
Setting [6] is: 25 mM glucose, 1 µg protein, replicate 2.

Read-outs that look alike come from different tables or passages of the source. Non-standard residues stand in square brackets, D forms with d. Residues, ends and D or L forms follow the SMILES beside them. Cit = NC(=O)NCCC[C@H](N)C(=O)O Bounds are passed on as bounds.

For the compound `CC[C@H](C)[C@H](NC(=O)[C@H](CC(N)=O)NC(=O)[C@H](Cc1ccc(O)cc1)NC(=O)[C@@H](NC(=O)[C@H](CCC(N)=O)NC(=O)[C@@H](N)CCCCN)[C@@H](C)CC)C(=O)N[C@@H](CC(C)C)C(=O)N[C@@H](CO)C(=O)N[C@H](C(=O)N[C@@H](CC(C)C)C(=O)NCC(=O)N[C@@H](CC(C)C)C(=O)N[C@@H](CCCNC(=N)N)C(=O)N1CCC[C@H]1C(=O)N[C@@H](CO)C(=O)O)[C@@H](C)O` [GK 346 WT] (H-KQIYNILSTLGLRPS-OH), in data set [1] (setting [3]), the IC50 (in general, the concentration that gives 50% inhibition) amounted to 0.47 µM.

`CC[C@H](C)[C@H](NC(=O)[C@H](CC(N)=O)NC(=O)[C@H](Cc1ccc(O)cc1)NC(=O)[C@@H](NC(=O)[C@H](CCC(N)=O)NC(=O)[C@@H](N)CCCCN)[C@@H](C)CC)C(=O)N[C@@H](CC(C)C)C(=O)N[C@@H](CO)C(=O)N[C@H](C(=O)N[C@@H](CC(C)C)C(=O)NCC(=O)N[C@@H](CC(C)C)C(=O)N[C@@H](CCCNC(N)=O)C(=O)N1CCC[C@H]1C(=O)N[C@@H](CO)C(=O)O)[C@@H](C)O` [GK 346] (H-KQIYNILSTLGL[Cit]PS-OH): the half-inhibitory concentration (IC50) in data set [1] (setting [3]) was 0.54 µM.

Regarding `CC[C@H](C)[C@H](NC(=O)[C@H](CC(N)=O)NC(=O)[C@@H](N)Cc1ccc(O)cc1)C(=O)N[C@@H](CC(C)C)C(=O)N[C@@H](CO)C(=O)N[C@H](C(=O)N[C@@H](CC(C)C)C(=O)NCC(=O)N[C@@H](CC(C)C)C(=O)N[C@@H](CCCNC(N)=O)C(=O)N1CCC[C@H]1C(=O)N[C@@H](CO)C(=O)N[C@H](C(=O)N[C@H](C(=O)N[C@@H](CC(=O)O)C(=O)O)[C@@H](C)O)[C@@H](C)O)[C@@H](C)O` [GK 349-363] (H-YNILSTLGL[Cit]PSTTD-OH; N-terminus and C-terminus assumed), in data set [1] (setting [4]), the IC50 was more than 50 µM.

On to `CC[C@H](C)[C@H](NC(=O)[C@H](CC(=O)O)NC(=O)[C@H](CS)NC(=O)[C@H](CC(=O)O)NC(=O)[C@@H](NC(=O)[C@@H](NC(=O)[C@H](CO)NC(=O)[C@@H]1CCCN1C(=O)[C@H](CCCNC(N)=O)NC(=O)[C@H](CC(C)C)NC(=O)CNC(=O)[C@H](CC(C)C)NC(=O)[C@@H](NC(=O)[C@H](CO)NC(=O)[C@@H](N)CC(C)C)[C@@H](C)O)[C@@H](C)O)[C@@H](C)O)C(=O)O` [GK 352-366] (H-LSTLGL[Cit]PSTTDCDI-OH; N-terminus and C-terminus assumed), for which the IC50 in data set [1] (setting [4]) is more than 50 µM.

Consider `CC[C@H](C)[C@H](NC(=O)[C@@H](N)CC(=O)O)C(=O)N[C@H](C(=O)N[C@@H](CCCNC(N)=O)C(=O)N[C@@H](CCCNC(=N)N)C(=O)N[C@@H](C)C(=O)N[C@@H](CS)C(=O)N[C@@H](CCC(=O)O)C(=O)N[C@@H](CO)C(=O)N[C@H](C(=O)N[C@@H](CO)C(=O)N[C@H](C(=O)N[C@@H](CCCNC(N)=O)C(=O)N[C@@H](C)C(=O)O)[C@@H](C)O)C(C)C)C(C)C` [GK 365-378] (H-DIV[Cit]RACESVST[Cit]A-OH; N-terminus and C-terminus assumed), for which the half-maximal inhibitory concentration (IC50) in data set [1] (setting [4]) was more than 50 µM.

For `CC[C@H](C)[C@H](NC(=O)[C@@H](NC(=O)CNC(=O)[C@H](C)N)C(C)C)C(=O)N[C@@H](CC(N)=O)C(=O)N[C@@H](CCCNC(N)=O)C(=O)N[C@@H](CCSC)C(=O)N[C@@H](CCCNC(N)=O)C(=O)N[C@@H](CCC(=O)O)C(=O)N[C@@H](CO)C(=O)N[C@@H](CCCNC(N)=O)C(=O)N[C@@H](CO)C(=O)N[C@@H](CCC(=O)O)C(=O)N[C@@H](CC(=O)O)C(=O)N[C@H](C(=O)O)C(C)C` [GK 387-401] (H-AGVIN[Cit]M[Cit]ES[Cit]SEDV-OH; N-terminus and C-terminus assumed), in data set [1] (setting [4]), the half-maximal inhibitory concentration (IC50) was more than 50 µM.

With `CC[C@H](C)[C@H](NC(=O)[C@H](CCCNC(N)=O)NC(=O)[C@H](CCSC)NC(=O)[C@@H](NC(=O)[C@H](CC(=O)O)NC(=O)[C@H](CCC(=O)O)NC(=O)[C@@H](N)CO)C(C)C)C(=O)N[C@H](C(=O)N[C@H](C(=O)NCC(=O)N[C@H](C(=O)N[C@@H](CC(=O)O)C(=O)NCC(=O)N[C@@H](CO)C(=O)N[C@H](C(=O)O)C(C)C)C(C)C)C(C)C)[C@@H](C)O` [GK 398-412] (H-SEDVM[Cit]ITVGVDGSV-OH; N-terminus and C-terminus assumed), the IC50 in data set [1] (setting [4]) is more than 50 µM.

As to `CC(C)C[C@H](NC(=O)[C@H](CCCCN)NC(=O)[C@H](Cc1ccc(O)cc1)NC(=O)[C@@H](NC(=O)[C@H](CO)NC(=O)CN)C(C)C)C(=O)N[C@@H](Cc1c[nH]cn1)C(=O)N1CCC[C@H]1C(=O)N[C@@H](CO)C(=O)N[C@@H](Cc1ccccc1)C(=O)N[C@@H](CCCCN)C(=O)N[C@@H](CCC(=O)O)C(=O)N[C@@H](CCCNC(N)=O)C(=O)N[C@@H](Cc1ccccc1)C(=O)N[C@@H](Cc1c[nH]cn1)C(=O)O` [GK 410-424] (H-GSVYKLHPSFKE[Cit]FH-OH; N-terminus and C-terminus assumed), the IC50 in data set [1] (setting [4]) was more than 50 µM.

`CC(C)C[C@H](NC(=O)[C@H](CCCNC(N)=O)NC(=O)[C@H](CCCNC(=N)N)NC(=O)[C@@H](NC(=O)[C@H](CO)NC(=O)[C@H](C)NC(=O)[C@H](Cc1c[nH]cn1)NC(=O)[C@H](Cc1ccccc1)NC(=O)[C@H](CCCNC(N)=O)NC(=O)[C@H](CCC(=O)O)NC(=O)[C@H](CCCCN)NC(=O)[C@H](Cc1ccccc1)NC(=O)[C@H](CO)NC(=O)[C@@H]1CCCN1C(=O)[C@@H](N)Cc1c[nH]cn1)C(C)C)C(=O)O` [GK 416-439] (H-HPSFKE[Cit]FHASVR[Cit]L-OH; N-terminus and C-terminus assumed): the IC50 in data set [1] (setting [4]) is more than 50 µM.

On to `CC[C@H](C)[C@H](NC(=O)[C@H](Cc1ccccc1)NC(=O)[C@@H](NC(=O)[C@@H](NC(=O)[C@@H](N)CCC(=O)O)[C@@H](C)CC)[C@@H](C)O)C(=O)N[C@@H](CCC(=O)O)C(=O)N[C@@H](CO)C(=O)N[C@@H](CCC(=O)O)C(=O)N[C@@H](CCC(=O)O)C(=O)NCC(=O)N[C@@H](CO)C(=O)NCC(=O)N[C@@H](CCCNC(N)=O)C(=O)NCC(=O)N[C@@H](C)C(=O)O` [GK 435-449] (H-EITFIESEEGSG[Cit]GA-OH; N-terminus and C-terminus assumed), for which the IC50 in data set [1] (setting [4]) was more than 50 µM.

For “PAD-treated rhGK: rhGK citrullinated in vitro by rabbit peptidylarginine deiminase (PADI2)”, the “reduction of catalytic activity by citrullination” value in data set [2] (25 mM glucose, 1 µg protein, versus native rhGK) came to 20%. For the same compound, the catalytic activity in data set [2] (setting [5]) is recorded as 56.53; in data set [2] (setting [6]), 60.82. Moreover, the Vmax – broadly, the top rate of the reaction or transport when substrate is in excess – in data set [2] amounted to 119.9 ± 7.7 µmol/mg/min. Moreover, the Km (commonly the substrate concentration at which the rate is half of its maximum) in data set [2] is 16.2 ± 2.3 mM.

“rhGK: Recombinant human pancreatic glucokinase”: the catalytic activity in data set [2] (setting [5]) was 72.34. In data set [2] (setting [6]), the catalytic activity turned out to be 76.63. Besides, in data set [2], the maximal velocity (Vmax) worked out at 115.1 ± 10.5 µmol/mg/min and the Km is 8.48 ± 2.1 mM.

Values taken from publication PMC8986778, “Citrullination of glucokinase is linked to autoimmune diabetes” (Nature Communications, 2022).
